Values of other authors, collected in US20030035836A1, “Oral controlled release pharmaceutical composition for once-a-day therapy for the treatment and prophylaxis of cardiac and circulatory diseases” (priority 2001, published 2003).

Conditions: oral administration; considerable first pass metabolism

COc1ccccc1OCCNCC(O)COc1cccc2[nH]c3ccccc3c12 (racemic) [Carvedilol, 1-(9H-carbazol-4-yloxy)-3-[[2-(2-methoxyphenoxy)ethyl]amino]-2-propanol]
absolute bioavailability: 25%
